Data from paper PMC11952508 (bioRxiv, 2025).

Key:
Assay in all cases: in vitro NanoGlo kinase activity assay, n=[…]
Format in all cases: biochemical
[1] = target: CLK1 (Homo sapiens, UniProt P49759)
[2] = target: CLK3 (Homo sapiens, UniProt P49761)
[3] = target: CLK2 (Homo sapiens, UniProt P49760)
Chain of CLK2 (P49760 whole entry): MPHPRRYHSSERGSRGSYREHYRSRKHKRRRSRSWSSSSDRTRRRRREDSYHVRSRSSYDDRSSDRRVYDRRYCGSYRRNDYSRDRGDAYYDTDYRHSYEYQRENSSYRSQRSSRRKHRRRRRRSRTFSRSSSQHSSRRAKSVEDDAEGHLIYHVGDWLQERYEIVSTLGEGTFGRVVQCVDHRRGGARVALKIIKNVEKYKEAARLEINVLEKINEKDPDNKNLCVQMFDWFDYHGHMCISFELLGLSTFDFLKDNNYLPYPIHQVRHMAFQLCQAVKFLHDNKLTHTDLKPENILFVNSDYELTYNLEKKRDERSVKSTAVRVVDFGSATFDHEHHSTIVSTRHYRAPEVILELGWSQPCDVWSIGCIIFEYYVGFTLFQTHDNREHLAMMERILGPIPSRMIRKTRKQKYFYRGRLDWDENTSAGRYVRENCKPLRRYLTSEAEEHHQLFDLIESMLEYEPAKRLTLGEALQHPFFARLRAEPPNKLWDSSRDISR

Chain of CLK3 (P49761 whole entry): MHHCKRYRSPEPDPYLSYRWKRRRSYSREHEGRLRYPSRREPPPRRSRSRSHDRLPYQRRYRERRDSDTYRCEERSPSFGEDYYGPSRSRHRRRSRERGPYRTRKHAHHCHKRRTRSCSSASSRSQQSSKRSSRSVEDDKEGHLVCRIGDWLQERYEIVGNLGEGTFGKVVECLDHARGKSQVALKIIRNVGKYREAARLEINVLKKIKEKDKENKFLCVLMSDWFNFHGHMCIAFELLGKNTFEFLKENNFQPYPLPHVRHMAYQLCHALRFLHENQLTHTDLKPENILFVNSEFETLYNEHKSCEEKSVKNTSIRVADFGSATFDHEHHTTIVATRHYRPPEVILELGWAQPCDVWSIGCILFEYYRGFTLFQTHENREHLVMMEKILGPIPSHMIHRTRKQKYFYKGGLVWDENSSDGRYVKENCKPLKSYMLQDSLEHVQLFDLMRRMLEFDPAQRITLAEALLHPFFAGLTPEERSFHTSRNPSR
Chain of CLK1 (P49759 whole entry): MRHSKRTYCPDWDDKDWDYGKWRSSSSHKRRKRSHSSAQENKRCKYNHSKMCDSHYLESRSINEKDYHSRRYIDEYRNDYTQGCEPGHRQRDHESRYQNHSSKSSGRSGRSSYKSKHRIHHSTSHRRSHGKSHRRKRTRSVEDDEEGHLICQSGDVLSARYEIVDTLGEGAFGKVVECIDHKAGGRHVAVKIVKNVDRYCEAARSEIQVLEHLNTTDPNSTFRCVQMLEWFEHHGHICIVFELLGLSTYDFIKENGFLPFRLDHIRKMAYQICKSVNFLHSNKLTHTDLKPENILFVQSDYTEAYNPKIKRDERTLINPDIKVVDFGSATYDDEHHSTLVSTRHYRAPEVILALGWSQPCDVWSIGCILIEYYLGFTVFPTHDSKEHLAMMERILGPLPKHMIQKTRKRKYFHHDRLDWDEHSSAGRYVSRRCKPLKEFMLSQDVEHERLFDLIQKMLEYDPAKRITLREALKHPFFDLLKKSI

IC50 [1]: 0.446 µM | IC50 [2]: 6.8 µM | IC50 [3]: 0.605 µM
Compound: O=C(Nc1cc(C2CCCC2)n[nH]1)c1ccc2c(c1)[nH]c(=O)n2C1CCCC1 [SR-1815]
